From patent US20090263410A1, “USE OF TGF-B1 INHIBITOR PEPTIDES IN THE PREPARATION OF AN IMMUNE RESPONSE MODULATING AGENT” (Proyecto De Biomedicina Cima, S.L., priority 2005, published 2009)
Entries after “also recorded” stand apart in the source; their conditions may differ.

Columns and labels:
[1] = tested on: lymphocyte cultures derived from nodes; assay: Induction of T-helper response to FIS: IL-2 and IFN-γ in lymph node lymphocyte culture supernatants; type: in vivo, BALB/c mice
Procedure: The FIS peptide is characterized as a T-helper determinant derived from sperm whale myoglobin, amino acids (106-118). This peptide has been widely used for the induction of antibodies against haptenic peptides. We wanted to analyse the effect of peptide p144 on the induction of a cytokine profile characterized among other things by the increase in IFN-γ and IL-12. In this model the following was administered by […] to groups of 3 female BALB/c mice, 4 to 8 weeks old, (Harlan, Barcelona), distributing the animals in the following treatments: • FIS: mice which received by […] a 1:1 emulsion of Freund's incomplete adjuvant and saline serum which contained 50 μg of FIS. • FIS+p144: mice which received by […] a 1:1 emulsion of Freund's incomplete adjuvant and saline serum which contained 50 μg of FIS and 50 μg of p144.
10 days after immunization, the animals were sacrificed and the popliteal, inguinal and periaortic lymph nodes were extracted. The nodes were homogenized with a syringe and they were washed three times at 4° C. with washing medium (clean RPMI 1640 medium). Next, the cells were resuspended in complete medium (RPMI 1640 with 10% FBS, 2 mM of glutamine, 100 U/ml of penicillin, 100 μg/ml of streptomycin, 5×10^−5 M of β-mercaptoethanol, 25 mM of Hepes and sodium pyruvate), at a concentration of 5.3×10^6 cells/ml adding 150 μl in each well of a flat-bottomed 96-well plate. The different peptide concentrations (6 and 10 μM) were added in triplicate and at a volume of […] per well. The cells were cultured in a stove at 37° C. and with 5% CO2 for two days. […] These supernatants were frozen at −20° C. until the quantification of the cytokine concentration.
The quantity of IFN-γ was measured using a commercial ELISA (Mouse IFN-γ Duoset ELISA Development System, Genzyme, Cambridge and OPTEIA Mouse IFN-γ Set, Pharmingen, San Diego, USA) in accordance with the manufacturer's instructions. The results were expressed as pg/ml of IFN-γ using a standard curve of known quantities of IFN-γ.
The quantity of IL-2 in each supernatant was measured by studying the proliferation of the CTL.L. cell line, whose growth is IL-2 dependent (Lai M. et al., 1987). […]
To perform the assay, the supernatants were cultured with 3000-5000 CTL.L. cells per well, diluted to a final volume of 100 μl. […] The radioactivity was quantified in a scintillation counter (Top Count, Microplate Scintillation Counter, Packard) after the addition of 25 μl of scintillation liquid (MICROSCINT®, Packard, Bioscience Company) per well. The results of the counts were expressed as mU/ml of IL-2, interpolating the counts of each well in a standard curve. […]

CT26 cells [2] = assay: Protection against growth of CT26 cells after immunization with AH1 + LVQ mixtures; type: in vivo, BALB/c mice; conditions: mice protected/total; immunization mixtures in Freund's incomplete adjuvant; 500,000 CT26 cells subcutaneous
Excerpt: […] is a peptide which is presented by the MHC-II on the surface of the presenting cell, and a DTc is a peptide which is presented by MHC-I on the surface of the presenting cell and in tumour cells. It is known that the joint immunization of a DTc (AH1 peptide) and a DTh (LVQ peptide), both peptides coming from the gp70 protein of the tumour antigen expressed by CT26 cells, was capable of protecting against the subcutaneous growth of 500,000 CT26 tumour cells. Since TGF-β1 is important in the immune response induction process, we wanted to study the effect of peptide p144 on the induction of the response responsible for protection against the growth of CT26 cells. As is indicated in Table 1, three groups of BALB/c mice were immunized with the following mixtures of Freund's incomplete adjuvant: (i) with AH1 LVQ, (ii) with AH1+LVQ+p144 and (iii) just with Freund's incomplete adjuvant.

CT26 cells [3] = assay: Tumour growth of subcutaneous CT26 in AH1-immunized mice treated with peptides; type: in vivo, balb-c mice
Procedure: GROUPS: 4 groups of 7 female balb-c mice, of 6 weeks old/group.
AH1+FIA s.c.+p144 (50 μg i.p./dose/mouse) AH1+FIA s.c.+p17(1-11) (50 μg i.p./dose/mouse) DESIGN: AH1+FIA: […]; Peptides: from day −6 on alternate days until day 10: Tumour model volume: Each 3 days from day 10 to day 41. Challenge on day 0 with CT26 (500000 cells/mouse s.c. in the flank).
REDUCTION IN THE MEAN TUMOUR VOLUME BY GROUPS TREATED WITH PEPTIDES: The effect of peptides p144 and p17(1-11)Am was studied in a tumour progression model. In this model, mice were immunized with 50 μg of AH1 10 days before the administration of 5×10^5 CT26 cells. In order to verify the effect of blocking the TGF-β1 on the protection against CT tumour cells, another two groups of mice were treated on alternate days by intraperitoneal route between days 6 and 10 (50 μg/mouse/48 h) with peptides p144 and p17(1-11)Am. […] This protection reached 100% of the animals in the case of p144 (FIG. 16).

[4] = 50 μg FIS + 50 μg p144 in FIA versus FIS alone, in vitro restimulation with FIS
[5] = lymphocytes from mice immunized with FIS+p144

p144: peptide inhibiting TGF-β1 whose amino acid sequence corresponds to SEQ ID NO: 1 (TSLDASIIWAMMQN; Synthetic Construct from human TGB-Beta1 type III receptor.Domain730-743)
IFN-γ production compared to FIS [1, 4]: reduced
IL-2 production compared to FIS [1, 4]: reduced
IFN-γ production when restimulating in vitro against p144 [1, 5]: some production of IFN-γ
IL-2 production when restimulating in vitro against p144 [1, 5]: production of IL-2
Protection level against the growth of CT26 cells (CT26 cells [2]): negative effect on protection
tumour growth (CT26 cells [3]; 50 μg/mouse/48 h i.p. between days 6 and 10, s.c. CT26 on day 0, AH1 immunization 10 days before): protection against tumour growth; also recorded: delay tumour growth
protection against tumour growth, share of animals (CT26 cells [3]; measured on day 42 after subcutaneous administration of tumour cells): 100%
